# Test results taken from patent US20260250318A1, “COMPOSITIONS AND METHODS FOR CROSSING THE BLOOD BRAIN BARRIER” (VOYAGER THERAPEUTICS, INC., priority 2022, published 2026).
# System: brain
# Assay: Matured TTM-001 and TTM-002 variants, NGS enrichment in mouse brain
# Type: in vivo, mice
# Conditions: NGS fold-enrichment, brain of mice, relative to AAV9 control
row,Sequence,"Fold Enrichment relative to AAV9, Brain (Mouse) [fold]"
1,NTINGSGSPHSKAQNQQT (peptide inserted in AAV capsid),55.179
2,KTIIGSGSPHSKAQHQLT,100.144
3,KTERSSGSPHSKAQNQQT,125.538
4,KTINGSGSPHSKAQSPPT,97.111
5,KTIIGGGSPHSKAHNQQT,65.492
6,KTSNESGSPHSKAQNHQT,70.590

# Same assay, conditions: NGS fold-enrichment, mouse brain, relative to AAV9 control
row,Sequence,"Fold Enrichment relative to AAV9, Brain (Mouse) [fold]"
1,NTINGSGSPHSKAQNQQT (peptide inserted in AAV capsid),55.179
2,KTINGHDSPHKSVQTHQT,7.519
3,KTIIGGGSPHSKAHNQQT,65.492
4,KTVNGHDSPHKSGQNLLT,18.894
5,KTSNESGSPHSKAQNHQT,70.590

# System: brains, heart, liver, muscle, and DRG of the NHPs
# Assay: Maturation of TTM-001 and TTM-002 capsids, NGS enrichment in NHP tissues
# Type: in vivo
# Conditions: NGS fold-enrichment of RNA, NHP brain, relative to AAV9 control
# Method in brief: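 Variants carry mutations within and flanking the loop IV peptide insert: positions 450–466 were triplet-randomized, while positions 449–466 received low-frequency point mutations. The combined pool went into two NHPs, and each peptide was scored by NGS enrichment ratio against AAV9.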
row,Sequence,"Fold Enrichment relative to AAV9, Brain (NHP) [fold]"
1,NTINGSGSPHSKAQNQQT (peptide inserted in AAV capsid),90.017
2,KTINGHDSPHKSVQTHQT,77.309
3,KTIIGGGSPHSKAHNQQT,75.872
4,KTVNGHDSPHKSGQNLLT,83.969
5,KTSNESGSPHSKAQNHQT,75.720

# Same assay, conditions: NGS fold-enrichment, DRG of NHPs, relative to AAV9 control
row,Sequence,"Fold Enrichment relative to AAV9, DRG (NHP) [fold]"
1,NTINGSGSPHSKAQNQQT (peptide inserted in AAV capsid),1.712
2,KTIIGSGSPHSKAQHQLT,0.000
3,KTERSSGSPHSKAQNQQT,0.000
4,KTINGSGSPHSKAQSPPT,0.069
5,KTIIGGGSPHSKAHNQQT,0.000
6,KTSNESGSPHSKAQNHQT,0.000

# Same assay, conditions: NGS fold-enrichment, NHP DRG, relative to AAV9 control
row,Sequence,"Fold Enrichment relative to AAV9, DRG (NHP) [fold]"
1,NTINGSGSPHSKAQNQQT (peptide inserted in AAV capsid),1.712
2,KTINGHDSPHKSVQTHQT,0.237
3,KTIIGGGSPHSKAHNQQT,0.000
4,KTVNGHDSPHKSGQNLLT,0.114
5,KTSNESGSPHSKAQNHQT,0.000

# Same assay, conditions: NGS fold-enrichment, NHP heart, relative to AAV9 control
row,Sequence,"Fold Enrichment relative to AAV9, Heart (NHP) [fold]"
1,NTINGSGSPHSKAQNQQT (peptide inserted in AAV capsid),1.261
2,KTINGHDSPHKSVQTHQT,0.062
3,KTIIGGGSPHSKAHNQQT,0.050
4,KTVNGHDSPHKSGQNLLT,0.040
5,KTSNESGSPHSKAQNHQT,0.000

# Same assay, conditions: NGS fold-enrichment, NHP liver DNA, relative to AAV9 control
row,Sequence,"Fold Enrichment relative to AAV9, Liver DNA (NHP) [fold]"
1,NTINGSGSPHSKAQNQQT (peptide inserted in AAV capsid),0.540
2,KTINGHDSPHKSVQTHQT,0.116
3,KTIIGGGSPHSKAHNQQT,0.235
4,KTVNGHDSPHKSGQNLLT,0.035
5,KTSNESGSPHSKAQNHQT,0.217

# Same assay, conditions: NGS fold-enrichment, NHP liver RNA, relative to AAV9 control
row,Sequence,"Fold Enrichment relative to AAV9, Liver RNA (NHP) [fold]"
1,NTINGSGSPHSKAQNQQT (peptide inserted in AAV capsid),0.923
2,KTINGHDSPHKSVQTHQT,0.000
3,KTIIGGGSPHSKAHNQQT,0.000
4,KTVNGHDSPHKSGQNLLT,0.000
5,KTSNESGSPHSKAQNHQT,0.169

# Same assay, conditions: NGS fold-enrichment, NHP muscle, relative to AAV9 control
row,Sequence,"Fold Enrichment relative to AAV9, Muscle (NHP) [fold]"
1,NTINGSGSPHSKAQNQQT (peptide inserted in AAV capsid),1.171
2,KTINGHDSPHKSVQTHQT,0.000
3,KTIIGGGSPHSKAHNQQT,0.000
4,KTVNGHDSPHKSGQNLLT,0.023
5,KTSNESGSPHSKAQNHQT,0.000

# Same assay, conditions: NGS fold-enrichment, RNA, brain of NHPs, relative to AAV9 control
row,Sequence,"Fold Enrichment relative to AAV9, Brain (NHP) [fold]"
1,NTINGSGSPHSKAQNQQT (peptide inserted in AAV capsid),90.017
2,KTIIGSGSPHSKAQHQLT,72.291
3,KTERSSGSPHSKAQNQQT,74.853
4,KTINGSGSPHSKAQSPPT,71.632
5,KTIIGGGSPHSKAHNQQT,75.872
6,KTSNESGSPHSKAQNHQT,75.720

# Same assay, conditions: NGS fold-enrichment, heart of NHPs, relative to AAV9 control
row,Sequence,"Fold Enrichment relative to AAV9, Heart (NHP) [fold]"
1,NTINGSGSPHSKAQNQQT (peptide inserted in AAV capsid),1.261
2,KTIIGSGSPHSKAQHQLT,0.000
3,KTERSSGSPHSKAQNQQT,0.071
4,KTINGSGSPHSKAQSPPT,0.047
5,KTIIGGGSPHSKAHNQQT,0.050
6,KTSNESGSPHSKAQNHQT,0.000

# Same assay, conditions: NGS fold-enrichment, liver DNA of NHPs, relative to AAV9 control
row,Sequence,"Fold Enrichment relative to AAV9, Liver DNA (NHP) [fold]"
1,NTINGSGSPHSKAQNQQT (peptide inserted in AAV capsid),0.540
2,KTIIGSGSPHSKAQHQLT,0.000
3,KTERSSGSPHSKAQNQQT,0.056
4,KTINGSGSPHSKAQSPPT,0.425
5,KTIIGGGSPHSKAHNQQT,0.235
6,KTSNESGSPHSKAQNHQT,0.217

# Same assay, conditions: NGS fold-enrichment, liver RNA of NHPs, relative to AAV9 control
row,Sequence,"Fold Enrichment relative to AAV9, Liver RNA (NHP) [fold]"
1,NTINGSGSPHSKAQNQQT (peptide inserted in AAV capsid),0.923
2,KTIIGSGSPHSKAQHQLT,0.000
3,KTERSSGSPHSKAQNQQT,1.036
4,KTINGSGSPHSKAQSPPT,0.179
5,KTIIGGGSPHSKAHNQQT,0.000
6,KTSNESGSPHSKAQNHQT,0.169

# Same assay, conditions: NGS fold-enrichment, muscle of NHPs, relative to AAV9 control
row,Sequence,"Fold Enrichment relative to AAV9, Muscle (NHP) [fold]"
1,NTINGSGSPHSKAQNQQT (peptide inserted in AAV capsid),1.171
2,KTIIGSGSPHSKAQHQLT,0.000
3,KTERSSGSPHSKAQNQQT,0.000
4,KTINGSGSPHSKAQSPPT,0.274
5,KTIIGGGSPHSKAHNQQT,0.000
6,KTSNESGSPHSKAQNHQT,0.000
